Assay results published in patent publication US8399498B2, “Animal ectoparasite-controlling agent” (Sumitomo Chemical Company, Limited, priority 2010, dated 2013).

Key:
Format in all cases: in vivo
[1] = test system: Haemaphysalis longicornis; test: Dropping application against dog-infested ticks; conditions: dog (beagle), dropping application on skin of neck and back, 20 mg/kg
Procedure: The previous day before dropping application, 100 test ticks (Haemaphysalis longicornis, young ticks) were deposited on a dog (beagle). Before the dropping application, infested ticks were counted.
Each (1.5 g) of the present hydrazide compound (1) and Comparative compound (52) was dissolved in diethylene glycol monoethyl ether (6.0 g) to prepare a test solution. Said test solution was directly dropped on the skin of the neck and back of the dog while pushing aside fur thereon at a rate of 0.1 ml per 1 kg of the dog's body weight (dose amount: 20 mg/kg). This is referred to as a test group. On the other hand, diethylene glycol monoethyl ether alone was applied dropwise to a placebo group.
Two (2) days after the application, the number of living ticks, which were infesting the dogs, was examined. When the examination was completed, all infested ticks were removed from the dogs.
The infestation rate and control rate were calculated by the following formulae:
Method of calculating infestation rate and control rate at the initial stage (2 days) after the application: Infestation rate (%) at X days after application=(number of living ticks at X days/number of living ticks before application)×100 Control rate (%) at X days after application=(infestation rate of test group before application−infestation rate of test group at X days)/infestation rate of test group before application×100 […]

[2] = test system: Haemaphysalis longicornis; test: Dropping application against mouse-infested ticks; conditions: 0.1% w/v solution 200 μL dropwise on whole body surface, 2 days after application
Procedure: The previous day before dropping application, 30 test ticks (Haemaphysalis longicornis, young ticks) were deposited on a mouse. Before the dropping application, uninfested ticks were removed.
The present hydrazide compound (1) (5 mg) was dissolved in a mixture (5 mL) of propylene carbonate and diethylene glycol monoethyl ether in equal amounts to prepare a 0.1% w/v solution. Said solution (200 μL) was applied dropwise to the whole body surface of a mouse with a pipette. To a control group, the mixture (200 μL) alone was applied. Each application was repeated 3 times per group.
Two (2) days after the application, the number of dead ticks was examined and the mortality was calculated by the following formula: Mortality (%)=100×(number of dead ticks/infested ticks before dropping application)

[3] = test system: Haemaphysalis longicornis; test: Oral administration against mouse-infested ticks; conditions: test solution 20 mg/10 mL at 10 mL per 1 kg body weight, 2 days after administration
Procedure: The previous day before oral administration, 30 test ticks (Haemaphysalis longicornis, young ticks) were deposited on a mouse. Before the oral administration, uninfested ticks were removed.
The present hydrazide compound (1) (20 mg) was dissolved in dimethylformamide (680 mg), and thereto a corn oil was added to prepare a test solution (10 mL). Said test solution was orally administered to the mouse at the rate of 10 mL per 1 kg of the body weight of the mouse with a gastric sonde. To a control group, a 7% dimethylformamide/corn oil solution alone was orally administered. Each administration was repeated 3 times per group.
Two (2) days after the administration, the number of dead ticks was examined and the mortality was calculated by the following formula: Mortality (%)=100×(number of dead ticks/infested ticks before oral administration)

Compound: CC(=O)NNc1cc(C2=NOC(c3cc(Cl)cc(Cl)c3)(C(F)(F)F)C2)ccc1Cl (stereo not shown) [Comparative compound (52), N′-{5-[5-(3,5-dichlorophenyl)-5-trifluoromethyl-4,5-dihydroisoxazol-3-yl]-2-chlorophenyl}acetohydrazide, reference compound]
- Tick control rates (%) at 2 days after the application [1]: 44%

Compound: COCC(=O)NNc1cc(C2=NOC(c3cc(Cl)cc(Cl)c3)(C(F)(F)F)C2)ccc1Cl (stereo not shown) [Compound (1), N′-{2-chloro-5-[5-(3,5-dichlorophenyl)-5-trifluoromethyl-4,5-dihydroisoxazol-3-yl]phenyl}methoxyacetohydrazide]
- Mortality [2]: ≥ 70%
- Mortality [3]: ≥ 90%
- Tick control rates (%) at 2 days after the application [1]: 94%
